In the NIST ThermoML archive (doi:10.1021/je050006+):

What was measured:
[1] = excess molar enthalpy (molar enthalpy of mixing); xn = mol fraction of the nth substance listed; details: 101.3 kPa, Liquid
[2] = xn = mol fraction of the nth substance listed; details: 101.3 kPa, Liquid

C=C1CCC2CC1C2(C)C (stereo not drawn) [β-pinene] + CCCO
Details | excess molar enthalpy [kJ/mol] | mass density [kg/m3] | speed of sound [m/s]
[1], 283.15 K, x1 = 0.067 | 0.061 | – | –
[1], 283.15 K, x1 = 0.135 | 0.127 | – | –
[1], 283.15 K, x1 = 0.263 | 0.236 | – | –
[1], 283.15 K, x1 = 0.38 | 0.316 | – | –
[1], 283.15 K, x1 = 0.488 | 0.373 | – | –
[1], 283.15 K, x1 = 0.585 | 0.403 | – | –
[1], 283.15 K, x1 = 0.677 | 0.416 | – | –
[1], 283.15 K, x1 = 0.764 | 0.406 | – | –
[1], 283.15 K, x1 = 0.855 | 0.36 | – | –
[1], 283.15 K, x1 = 0.926 | 0.282 | – | –
[1], 283.15 K, x1 = 0.97 | 0.198 | – | –
[1], 298.15 K, x1 = 0.067 | 0.089 | – | –
[1], 298.15 K, x1 = 0.135 | 0.177 | – | –
[1], 298.15 K, x1 = 0.263 | 0.336 | – | –
[1], 298.15 K, x1 = 0.38 | 0.456 | – | –
[1], 298.15 K, x1 = 0.488 | 0.539 | – | –
[1], 298.15 K, x1 = 0.585 | 0.586 | – | –
[1], 298.15 K, x1 = 0.677 | 0.613 | – | –
[1], 298.15 K, x1 = 0.764 | 0.587 | – | –
[1], 298.15 K, x1 = 0.855 | 0.533 | – | –
[1], 298.15 K, x1 = 0.926 | 0.409 | – | –
[1], 298.15 K, x1 = 0.97 | 0.262 | – | –
[1], 313.15 K, x1 = 0.067 | 0.116 | – | –
[1], 313.15 K, x1 = 0.135 | 0.243 | – | –
[1], 313.15 K, x1 = 0.263 | 0.462 | – | –
[1], 313.15 K, x1 = 0.38 | 0.626 | – | –
[1], 313.15 K, x1 = 0.488 | 0.742 | – | –
[1], 313.15 K, x1 = 0.585 | 0.802 | – | –
[1], 313.15 K, x1 = 0.677 | 0.822 | – | –
[1], 313.15 K, x1 = 0.764 | 0.788 | – | –
[1], 313.15 K, x1 = 0.855 | 0.682 | – | –
[1], 313.15 K, x1 = 0.926 | 0.519 | – | –
[1], 313.15 K, x1 = 0.97 | 0.331 | – | –
[2], 283.15 K, x1 = 0.0505 | – | 818.13 | 1265.6
[2], 283.15 K, x1 = 0.1024 | – | 824.2 | 1272.7
[2], 283.15 K, x1 = 0.2046 | – | 834.58 | 1285.3
[2], 283.15 K, x1 = 0.3046 | – | 843.01 | 1296
[2], 283.15 K, x1 = 0.405 | – | 850.35 | 1305.5
[2], 283.15 K, x1 = 0.5035 | – | 856.46 | 1313.7
[2], 283.15 K, x1 = 0.599 | – | 861.68 | 1321.2
[2], 283.15 K, x1 = 0.7026 | – | 866.65 | 1328.8
[2], 283.15 K, x1 = 0.8026 | – | 871.06 | 1336.3
[2], 283.15 K, x1 = 0.8834 | – | 874.33 | 1342.6
[2], 283.15 K, x1 = 0.9488 | – | – | 1348.5
[2], 283.15 K, x1 = 0.9489 | – | 876.85 | –
[2], 283.15 K, x1 = 0.9812 | – | 878.27 | 1352.9
[2], 298.15 K, x1 = 0.053 | – | 806.47 | 1212.9
[2], 298.15 K, x1 = 0.1036 | – | 812.35 | 1219
[2], 298.15 K, x1 = 0.2039 | – | 822.4 | 1229.7
[2], 298.15 K, x1 = 0.3038 | – | 830.81 | 1239.1
[2], 298.15 K, x1 = 0.3966 | – | 837.49 | 1246.9
[2], 298.15 K, x1 = 0.5122 | – | 844.67 | 1255.7
[2], 298.15 K, x1 = 0.6005 | – | 849.44 | 1261.8
[2], 298.15 K, x1 = 0.699 | – | 854.2 | 1268.6
[2], 298.15 K, x1 = 0.793 | – | – | 1275.4
[2], 298.15 K, x1 = 0.7931 | – | 858.43 | –
[2], 298.15 K, x1 = 0.8937 | – | 862.59 | 1283.3
[2], 298.15 K, x1 = 0.9426 | – | 864.54 | 1287.9
[2], 298.15 K, x1 = 0.9834 | – | 866.31 | 1293.6
[2], 313.15 K, x1 = 0.0514 | – | 794.24 | 1160.5
[2], 313.15 K, x1 = 0.1021 | – | 800.04 | 1165.7
[2], 313.15 K, x1 = 0.2032 | – | 810.14 | 1175
[2], 313.15 K, x1 = 0.307 | – | 818.69 | 1183.4
[2], 313.15 K, x1 = 0.405 | – | 825.65 | 1190.4
[2], 313.15 K, x1 = 0.5007 | – | 831.57 | 1196.5
[2], 313.15 K, x1 = 0.6004 | – | 837.06 | 1202
[2], 313.15 K, x1 = 0.7051 | – | 842.2 | 1206.4
[2], 313.15 K, x1 = 0.7928 | – | 846.14 | 1213.3
[2], 313.15 K, x1 = 0.8931 | – | 850.44 | 1222.1
[2], 313.15 K, x1 = 0.9407 | – | 852.42 | 1225.6
[2], 313.15 K, x1 = 0.9786 | – | 854.11 | 1228.9

C=C1CCC2CC1C2(C)C (stereo not drawn) [β-pinene] + CCO
Details | excess molar enthalpy, [1] [kJ/mol] | mass density, [2] [kg/m3] | speed of sound, [2] [m/s]
283.15 K, x1 = 0.0507 | – | 807.27 | 1209.5
283.15 K, x1 = 0.071 | 0.109 | – | –
283.15 K, x1 = 0.1012 | – | 815.62 | 1222.5
283.15 K, x1 = 0.142 | 0.206 | – | –
283.15 K, x1 = 0.2046 | – | 829.52 | 1246.3
283.15 K, x1 = 0.269 | 0.334 | – | –
283.15 K, x1 = 0.3015 | – | 839.85 | 1265.4
283.15 K, x1 = 0.394 | 0.417 | – | –
283.15 K, x1 = 0.4042 | – | 848.66 | 1282.4
283.15 K, x1 = 0.496 | 0.457 | – | –
283.15 K, x1 = 0.5145 | – | 856.44 | 1298.8
283.15 K, x1 = 0.599 | 0.489 | – | –
283.15 K, x1 = 0.6019 | – | 861.6 | 1309.4
283.15 K, x1 = 0.689 | 0.49 | – | –
283.15 K, x1 = 0.6981 | – | 866.52 | 1320.5
283.15 K, x1 = 0.773 | 0.482 | – | –
283.15 K, x1 = 0.7932 | – | 870.77 | 1330.4
283.15 K, x1 = 0.864 | 0.44 | – | –
283.15 K, x1 = 0.8762 | – | 874.13 | 1339.3
283.15 K, x1 = 0.93 | 0.353 | – | –
283.15 K, x1 = 0.9355 | – | 876.41 | 1345.8
283.15 K, x1 = 0.964 | 0.278 | – | –
283.15 K, x1 = 0.9799 | – | 878.19 | 1353.4
298.15 K, x1 = 0.0502 | – | 794.53 | 1156.2
298.15 K, x1 = 0.071 | 0.146 | – | –
298.15 K, x1 = 0.1022 | – | 803.02 | 1168.9
298.15 K, x1 = 0.142 | 0.27 | – | –
298.15 K, x1 = 0.1999 | – | 816.23 | 1189.9
298.15 K, x1 = 0.269 | 0.437 | – | –
298.15 K, x1 = 0.3045 | – | 827.43 | 1209
298.15 K, x1 = 0.394 | 0.539 | – | –
298.15 K, x1 = 0.4019 | – | 835.85 | 1224.1
298.15 K, x1 = 0.496 | 0.587 | – | –
298.15 K, x1 = 0.5 | – | 842.91 | 1237.4
298.15 K, x1 = 0.599 | 0.607 | – | –
298.15 K, x1 = 0.6017 | – | 849.06 | 1249.8
298.15 K, x1 = 0.689 | 0.605 | – | –
298.15 K, x1 = 0.6999 | – | 854.18 | 1260.6
298.15 K, x1 = 0.7626 | – | 857.17 | 1264.9
298.15 K, x1 = 0.773 | 0.582 | – | –
298.15 K, x1 = 0.864 | 0.51 | – | –
298.15 K, x1 = 0.89 | – | 862.45 | 1280.4
298.15 K, x1 = 0.93 | 0.39 | – | –
298.15 K, x1 = 0.9415 | – | 864.49 | 1286.3
298.15 K, x1 = 0.964 | 0.325 | – | –
298.15 K, x1 = 0.98 | – | 866.07 | 1294.5
313.15 K, x1 = 0.052 | – | 782.17 | 1104.8
313.15 K, x1 = 0.071 | 0.181 | – | –
313.15 K, x1 = 0.1041 | – | 790.76 | 1116.6
313.15 K, x1 = 0.142 | 0.34 | – | –
313.15 K, x1 = 0.2043 | – | 804.04 | 1135.7
313.15 K, x1 = 0.269 | 0.564 | – | –
313.15 K, x1 = 0.3029 | – | 814.57 | 1151.7
313.15 K, x1 = 0.394 | 0.715 | – | –
313.15 K, x1 = 0.4046 | – | 823.44 | 1167
313.15 K, x1 = 0.496 | 0.793 | – | –
313.15 K, x1 = 0.4981 | – | 830.17 | 1178.5
313.15 K, x1 = 0.599 | 0.835 | – | –
313.15 K, x1 = 0.6014 | – | 836.54 | 1189.8
313.15 K, x1 = 0.689 | 0.831 | – | –
313.15 K, x1 = 0.6979 | – | 841.7 | 1198.7
313.15 K, x1 = 0.773 | 0.8 | – | –
313.15 K, x1 = 0.809 | – | 846.76 | 1207
313.15 K, x1 = 0.864 | 0.7 | – | –
313.15 K, x1 = 0.8844 | – | 850.12 | 1213.6
313.15 K, x1 = 0.93 | 0.575 | – | –
313.15 K, x1 = 0.9356 | – | 852.26 | 1221.9
313.15 K, x1 = 0.964 | 0.395 | – | –
313.15 K, x1 = 0.985 | – | 854.6 | 1228.9
